Key:
[1] = Measurement of hydroscopicity (weight change method); assay type: physicochemical; conditions: sealed container, moisture of 70-85%, ambient temperature, 24 hours
Experimental: Hydroscopicity of salts from present disclosure was measured using a weight change method. The test samples were placed in a sealed container with moisture of 70-85% at ambient temperature for 24 hours and their weigh change was measured. All three hydrochloride salts of 5-ALA, 5-MAL and 5-HAL, and 5-ALA TCA were hygroscopic, their weight was increased by 25˜75%.

A549 cells = experiment: Measurement of PpIX formation in A549 cells in vitro; assay type: cell-based, human
Experimental: Test samples were dissolved with sterile saline to a concentration of 100 mM as stock solution. The stock solution was diluted to desired concentrations with culture medium or phosphate buffered solution (PBS).
A549 cells (ATCC), derived from human lung carcinoma, were grown in F12 medium (Gibco) containing 4.5 g/L glucose, 10% FCS, and penicillin/streptomycin, at 37° C. and 6% CO2 in a humid environment. For measurement purposes, the cells were sub-cultured in 48-well or 96-well dishes to give 5×10^4 cells/well 24 hours prior to incubation with test salts. The cells were washed twice with PBS and test solutions were added to the culture. After cells were incubated for 4, 8 or 24 hours, the medium was detached and the plates were rinsed twice with PBS, and PpIX natural fluorescence was measured at 360±40 nm excitation and 620±40 nm emission (CytoFluor Series 4000, Perspective Biosystems, MA, USA). The experiment was conducted in triplets.

[2] = test system: upper surface of the tongue; experiment: Measurement of potential skin irritation/stimulation on tongue surface; assay type: in vivo; set-up: key: A: no irritation; B: irritation; C: strong irritation; D: very strong irritation; conditions: 3 mg on upper surface of the tongue for 3-5 minutes
Experimental: The potential irritation/stimulation of test samples was carried out by applying 3 mg of each sample to the upper surface of the tongue for 3-5 minutes and then evaluated.

Row | Molecule | appearance of sample after moisture exposure [1] | Activity (relative activity to induce porphyrin formation) (A549 cells; 10 mM, 4 hrs) | Activity (relative activity to induce porphyrin formation) (A549 cells; 10 mM, 8 hrs) | Activity (relative activity to induce porphyrin formation) (A549 cells; 10 mM, 24 hrs) | irritation/stimulation on tongue surface ([2]; participant 1) | irritation/stimulation on tongue surface ([2]; participant 2) | irritation/stimulation on tongue surface ([2]; participant 3) | irritation/stimulation on tongue surface ([2]; participant 4) | Activity (relative activity to induce porphyrin formation) (A549 cells; 0.5 mM, 4 hrs) | Activity (relative activity to induce porphyrin formation) (A549 cells; 0.5 mM, 8 hrs) | Activity (relative activity to induce porphyrin formation) (A549 cells; 0.5 mM, 24 hrs) | Activity (relative activity to induce porphyrin formation) (A549 cells; 1 mM, 4 hrs) | Activity (relative activity to induce porphyrin formation) (A549 cells; 1 mM, 8 hrs) | Activity (relative activity to induce porphyrin formation) (A549 cells; 1 mM, 24 hrs) | weight change (weight increase) [1]
1 | 5-Aminolevulinic Acid 2,2,2-Trichloroacetate [5-ALA TCA] | turned to a liquid due to deliquescence | 1.00 ± 0.02 | 1.30 ± 0.06 | 2.50 ± 0.17 | B | B | B | B | – | – | – | – | – | – | –
2 | Cl.NCC(=O)CCC(=O)O [5-ALA HCl, 5-aminolevulinic acid hydrochloride, reference compound] | turned to a liquid due to deliquescence | 1.00 | 1.42 ± 0.04 | 2.35 ± 0.19 | D | C | D | C | – | – | – | – | – | – | –
3 | CCCCCCOC(=O)CCC(=O)CN.Cl [5-HAL HCl, Hexyl 5-aminolevulinate hydrochloride, reference compound] | turned to a liquid due to deliquescence | – | – | – | B | C | C | B | 1.20 ± 0.15 | 1.57 ± 0.08 | 2.92 ± 0.30 | ~2 | ~4 | ~10 | –
4 | COC(=O)CCC(=O)CN.Cl [5-MAL HCl, methyl 5-aminolevulinate hydrochloride, reference compound] | turned to a liquid due to deliquescence | 1.27 ± 0.04 | 1.60 ± 0.12 | 2.22 ± 0.16 | C | C | C | C | – | – | – | – | – | – | –
5 | Hexyl 5-Aminolevulinate 2,2,2-Trichloroacetate [5-HAL TCA] | unchanged as crystalline solid | – | – | – | B | B | A | B | 1.15 ± 0.05 | 1.57 ± 0.11 | 2.72 ± 0.10 | ~2 | ~4 | ~10 | remained unchanged
6 | Methyl 5-Aminolevulinate 2,2,2-Trichloroacetate [5-MAL TCA] | unchanged as crystalline solid | 1.20 ± 0.04 | 1.25 ± 0.02 | 2.20 ± 0.16 | B | B | B | B | – | – | – | – | – | – | < 5%

Reference: patent US10653653B2, “Salts of 5-aminolevulinic acid and derivatives” (priority 2016, dated 2020)
